From patent publication US8912213B2, “Synthesis and use of dual tyrosyl-DNA phosphodiesterase I (TDP1)- topoisomerase I (TOP1) inhibitors” (Purdue Research Foundation, priority 2012, dated 2014)
“Also recorded” adds a separate entry of the source. Where two headings read alike, the source gives them in different places.

Key:
[1] = target: Tdp1 (Homo sapiens (Human), UniProt Q9NUW8); test: Gel-based assay measuring the inhibition of recombinant Tdp1; format: biochemical;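 also: 5′-32P-labeled single-stranded DNA with 3′-phosphotyrosine incubated with 5 pM enzyme for 15 min at room temperature, inhibition seen as loss of 3′-phosphate product band by densitometry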
Experimental: Tdp1 inhibitory activity was measured by the drug's ability to inhibit the hydrolysis of the phosphodiester linkage between tyrosine and the 3′-end of the DNA substrate, and to prevent the generation of an oligonucleotide with a free 3′-phosphate (N14P). Therefore, the disappearance of the gel band for N14P indicated Tdp1 inhibition.
Gel-Based Assay Measuring the Inhibition of Recombinant Tdp1. A 5′-[^32P]-labeled single-stranded DNA oligonucleotide containing a 3′-phosphotyrosine (N14Y) was generated as described by Dexheimer et al. The DNA substrate was then incubated with 5 pM recombinant Tdp1 in the absence or presence of inhibitor for 15 min at room temperature in a buffer containing 50 mM Tris HCl, pH 7.5, 80 mM KCl, 2 mM EDTA, 1 mM DTT, 40 μg/ml BSA and 0.01% Tween-20. […] Gel images were scanned using a Typhoon 8600 (GE Healthcare) and densitometric analyses were performed using the ImageQuant software (GE Healthcare).

[2] = target: Human recombinant Top1 (Homo sapiens (Human), UniProt P11387); test: Topoisomerase I-mediated DNA cleavage reactions; format: biochemical; conditions: for Top1 (compound-induced DNA cleavage, semiquantitative scale): series (B), relative to 1 μM camptothecin (90) or MJ-III-65 (91); for Top1 (compound-induced DNA cleavage due to Top1 inhibition): semiquantitative;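 as to all read-outs here: 3′-end radiolabeled DNA substrate (about 2 nM) incubated with recombinant Top1 and compound for 20 min at 25 °C, cleavage products resolved by denaturing PAGE and phosphoimaging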
Experimental: Additionally, all indenoisoquinoline sulfonates and sulfonamides were tested for Top1 cleavage complex poisoning in a Top1-mediated DNA cleavage assay.
Topoisomerase I-Mediated DNA Cleavage Reactions. Human recombinant Top1 was purified from baculovirus as previously described. DNA cleavage reactions were prepared as previously reported with the exception of the DNA substrate. […] Unincorporated [^32P]dGTP was removed using mini Quick Spin DNA columns (Roche, Indianapolis, Ind.), and the eluate containing the 3′-end-labeled DNA substrate was collected. Approximately 2 nM radiolabeled DNA substrate was incubated with recombinant Top1 in 20 μL of reaction buffer [10 mM Tris-HCl (pH 7.5), 50 mM KCl, 5 mM MgCl2, 0.1 mM EDTA, and 15 μg/mL BSA] at 25° C. for 20 min in the presence of various concentrations of compounds. The reactions were terminated by adding SDS (0.5% final concentration) followed by the addition of two volumes of loading dye (80% formamide, 10 mM sodium hydroxide, 1 mM sodium EDTA, 0.1% xylene cyanol, and 0.1% bromphenol blue). Aliquots of each reaction mixture were subjected to 20% denaturing PAGE. Gels were dried and visualized by using a phosphoimager and ImageQuant software (Molecular Dynamics).
Topoisomerase I-Mediated DNA Cleavage Reactions. Top1 reactions were performed as recently described. […] The reactions were terminated by adding SDS (0.5% final concentration) followed by the addition of two volumes of loading dye (80% formamide, 10 mM sodium hydroxide, 1 mM sodium EDTA, 0.1% xylene cyanol, and 0.1% bromphenol blue). Reactions were subjected to 20% denaturing PAGE. Gels were dried and visualized by using a Typhoon 8600 and ImageQuant software (Molecular Dynamics).

[3] = tested on: HOP-62; test: NCI screen cytotoxicity, lung HOP-62; format: cell-based; conditions: Homo sapiens, 50% growth inhibition
[4] = tested on: HCT-116; test: NCI screen cytotoxicity, colon HCT-116; format: cell-based; conditions: Homo sapiens, 50% growth inhibition
[5] = tested on: UACC-62; test: NCI screen cytotoxicity, melanoma UACC-62; format: cell-based; conditions: Homo sapiens, 50% growth inhibition
[6] = tested on: SN12C; test: NCI screen cytotoxicity, renal SN12C; format: cell-based; conditions: Homo sapiens, 50% growth inhibition
[7] = tested on: DU-145; test: NCI screen cytotoxicity, prostate DU-145; format: cell-based; conditions: Homo sapiens, DU-145, read-out: Cytotoxicity (GI50 in μM) prostate DU-145; 50% growth inhibition
[8] = tested on: MDA-MB-435; test: NCI screen cytotoxicity, breast MDA-MB-435; format: cell-based; conditions: Homo sapiens, MDA-MB-435, read-out: Cytotoxicity (GI50 in μM) breast MDA-MB-435; 50% growth inhibition
[9] = tested on: OVCAR-3; test: NCI screen cytotoxicity, ovarian OVCAR-3; conditions: Homo sapiens, OVCAR-3, read-out: Cytotoxicity (GI50 in μM) ovarian OVCAR-3
[10] = tested on: all human cancer cell lines successfully tested; test: NCI screen, mean graph midpoint (MGM) for growth inhibition; conditions: for GI50: Homo sapiens, read-out: MGM (μM); for MGM: series (B), mean graph midpoint GI50, ± standard error where two determinations
[11] = series (A), gel-based assay, rec. human Tdp1, read-out: IC50 (μM) recombinant Tdp1

Chain of Human recombinant Top1 (P11387 whole entry): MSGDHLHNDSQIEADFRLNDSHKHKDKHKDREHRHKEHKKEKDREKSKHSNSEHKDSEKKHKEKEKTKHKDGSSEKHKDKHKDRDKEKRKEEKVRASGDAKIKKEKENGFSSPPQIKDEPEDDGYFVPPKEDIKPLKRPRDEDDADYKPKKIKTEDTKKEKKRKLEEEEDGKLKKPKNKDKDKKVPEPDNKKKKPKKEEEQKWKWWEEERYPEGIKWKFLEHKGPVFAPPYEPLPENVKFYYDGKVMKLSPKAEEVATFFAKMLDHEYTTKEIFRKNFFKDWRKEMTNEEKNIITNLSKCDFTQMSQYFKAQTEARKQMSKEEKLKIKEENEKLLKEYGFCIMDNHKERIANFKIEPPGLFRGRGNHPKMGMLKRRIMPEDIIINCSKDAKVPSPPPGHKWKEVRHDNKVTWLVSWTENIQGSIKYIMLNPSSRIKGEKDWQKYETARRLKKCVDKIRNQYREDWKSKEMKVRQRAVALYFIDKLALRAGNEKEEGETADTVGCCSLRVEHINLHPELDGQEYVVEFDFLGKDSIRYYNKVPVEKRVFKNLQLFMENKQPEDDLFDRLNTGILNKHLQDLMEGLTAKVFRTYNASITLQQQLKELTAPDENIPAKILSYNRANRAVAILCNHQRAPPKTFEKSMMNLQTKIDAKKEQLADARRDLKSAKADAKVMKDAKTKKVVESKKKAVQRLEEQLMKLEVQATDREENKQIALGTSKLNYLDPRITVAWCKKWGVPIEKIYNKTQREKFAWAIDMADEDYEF
Chain of Tdp1 (Q9NUW8 whole entry): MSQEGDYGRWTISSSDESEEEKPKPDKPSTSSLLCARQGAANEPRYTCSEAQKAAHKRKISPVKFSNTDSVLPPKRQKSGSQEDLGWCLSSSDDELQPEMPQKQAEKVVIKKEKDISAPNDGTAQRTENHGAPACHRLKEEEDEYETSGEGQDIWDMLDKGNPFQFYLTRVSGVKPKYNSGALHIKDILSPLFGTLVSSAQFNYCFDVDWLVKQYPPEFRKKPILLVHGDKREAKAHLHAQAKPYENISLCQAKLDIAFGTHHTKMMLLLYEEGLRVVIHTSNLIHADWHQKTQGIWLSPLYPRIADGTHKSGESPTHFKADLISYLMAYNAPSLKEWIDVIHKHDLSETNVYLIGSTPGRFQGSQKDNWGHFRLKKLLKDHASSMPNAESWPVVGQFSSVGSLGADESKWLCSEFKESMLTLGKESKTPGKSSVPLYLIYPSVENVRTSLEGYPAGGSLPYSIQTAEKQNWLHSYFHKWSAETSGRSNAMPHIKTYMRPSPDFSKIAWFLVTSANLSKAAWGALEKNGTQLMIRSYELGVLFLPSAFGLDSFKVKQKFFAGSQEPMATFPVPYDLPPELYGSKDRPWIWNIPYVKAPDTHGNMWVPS

## NCCCn1c2c(c3ccccc3c1=O)C(=O)c1ccccc1-2 [Compound 1 of (B)]
[1]
  IC50: 12 to 37 µM

## COC(=O)C(=O)Nc1ccc2c3c(n(C)c(=O)c2c1)-c1ccccc1C3=O [Compound 9 of (B), Methyl 2-[(6-Methyl-5,11-dioxo-6,11-dihydro-5H-indeno[1,2-c]isoquinolin-3-yl)amino]-2-oxoacetate]
[1]
  IC50: > 111 µM
  Tdp1 inhibitory activity (in words): inactive
[2]
  Top1 (compound-induced DNA cleavage, semiquantitative scale): 0

## COC(=O)CC(=O)Nc1ccc2c3c(n(C)c(=O)c2c1)-c1ccccc1C3=O [Compound 10 of (B), Methyl 3-[(6-Methyl-5,11-dioxo-6,11-dihydro-5H-indeno[1,2-c]isoquinolin-3-yl)amino]-3-oxopropanoate]
[1]
  IC50: > 111 µM
[2]
  Top1 (compound-induced DNA cleavage, semiquantitative scale): 0

## COC(=O)CCC(=O)Nc1ccc2c3c(n(C)c(=O)c2c1)-c1ccccc1C3=O [Compound 11 of (B), Methyl 4-[(6-Methyl-5,11-dioxo-6,11-dihydro-5H-indeno[1,2-c]isoquinolin-3-yl)amino]-4-oxobutanoate]
[1]
  IC50: > 111 µM
[2]
  Top1 (compound-induced DNA cleavage, semiquantitative scale): (+)

## COC(=O)CCCC(=O)Nc1ccc2c3c(n(C)c(=O)c2c1)-c1ccccc1C3=O [Compound 12 of (B), Methyl 5-[(6-Methyl-5,11-dioxo-6,11-dihydro-5H-indeno[1,2-c]isoquinolin-3-yl)amino]-5-oxopentanoate]
[1]
  IC50: > 111 µM
[2]
  Top1 (compound-induced DNA cleavage, semiquantitative scale): +

## COC(=O)CCCCC(=O)Nc1ccc2c3c(n(C)c(=O)c2c1)-c1ccccc1C3=O [Compound 13 of (B), Methyl 6-[(6-Methyl-5,11-dioxo-6,11-dihydro-5H-indeno[1,2-c]isoquinolin-3-yl)amino]-6-oxohexanoate]
[1]
  IC50: > 111 µM
[2]
  Top1 (compound-induced DNA cleavage, semiquantitative scale): 0

## Cn1c2c(c3ccc(NC(=O)CC(=O)O)cc3c1=O)C(=O)c1ccccc1-2 [Compound 15 of (B), 3-[(6-Methyl-5,11-dioxo-6,11-dihydro-5H-indeno[1,2-c]isoquinolin-3-yl)amino]-3-oxopropanoic Acid]
[1]
  IC50: > 111 µM
  Tdp1 inhibitory activity (in words): inactive

## COC(=O)CCC(=O)Nc1ccc2c3c(n(CCCN)c(=O)c2c1)-c1ccccc1C3=O [Compound 24 of (B), Methyl 4-[(6-(3-Aminopropyl)-5,11-dioxo-6,11-dihydro-5H-indeno[1,2-c]isoquinolin-3-yl)amino]-4-oxobutanoate]
[1]
  IC50: 37 to 111 µM
[2]
  Top1 (compound-induced DNA cleavage, semiquantitative scale): (+)

## Cl.NCCCn1c2c(c3ccc(NC(=O)C(=O)O)cc3c1=O)C(=O)c1ccccc1-2 [Compound 32 of (B), 2-[(6-(3-Aminopropyl)-5,11-dioxo-6,11-dihydro-5H-indeno[1,2-c]isoquinolin-3-yl)amino]-2-oxoacetic Acid Hydrochloride]
[1]
  IC50: > 111 µM
[2]
  Top1 (compound-induced DNA cleavage, semiquantitative scale): +

## Cl.NCCCn1c2c(c3ccc(NC(=O)CC(=O)O)cc3c1=O)C(=O)c1ccccc1-2 [Compound 33 of (B), 3-[(6-(3-Aminopropyl)-5,11-dioxo-6,11-dihydro-5H-indeno[1,2-c]isoquinolin-3-yl)amino]-3-oxopropanoic Acid Hydrochloride]
[1]
  IC50: > 111 µM
[2]
  Top1 (compound-induced DNA cleavage, semiquantitative scale): +

## Cl.NCCCn1c2c(c3ccc(NC(=O)CCC(=O)O)cc3c1=O)C(=O)c1ccccc1-2 [Compound 34 of (B), 4-[(6-(3-Aminopropyl)-5,11-dioxo-6,11-dihydro-5H-indeno[1,2-c]isoquinolin-3-yl)amino]-4-oxobutanoic Acid Hydrochloride]
[1]
  IC50: > 111 µM
[2]
  Top1 (compound-induced DNA cleavage, semiquantitative scale): +

## Cl.NCCCn1c2c(c3ccc(NC(=O)CCCC(=O)O)cc3c1=O)C(=O)c1ccccc1-2 [Compound 35 of (B), 5-[(6-(3-Aminopropyl)-5,11-dioxo-6,11-dihydro-5H-indeno[1,2-c]isoquinolin-3-yl)amino]-5-oxopentanoic Acid Hydrochloride]
[1]
  IC50: > 111 µM
[2]
  Top1 (compound-induced DNA cleavage, semiquantitative scale): 0

## Cl.NCCCn1c2c(c3ccc(NC(=O)CCCCC(=O)O)cc3c1=O)C(=O)c1ccccc1-2 [Compound 36 of (B), 6-[(6-(3-Aminopropyl)-5,11-dioxo-6,11-dihydro-5H-indeno[1,2-c]isoquinolin-3-yl)amino]-6-oxohexanoic Acid Hydrochloride]
[1]
  IC50: > 111 µM
[2]
  Top1 (compound-induced DNA cleavage, semiquantitative scale): +

## CCOC(=O)CNc1ccc2c3c(n(C)c(=O)c2c1)-c1ccccc1C3=O [Compound 38 of (B), Ethyl 2-[(6-Methyl-5,11-dioxo-6,11-dihydro-5H-indeno[1,2-c]isoquinolin-3-yl)amino]acetate]
[1]
  IC50: > 111 µM
[1]; listed as 38
  Tdp1 inhibitory activity (in words): inactivity; also recorded: inactive
[2]
  Top1 (compound-induced DNA cleavage, semiquantitative scale): 0

## Cn1c2c(c3ccc(NCC(=O)O)cc3c1=O)C(=O)c1ccccc1-2 [Compound 41 of (B), 2-[(6-Methyl-5,11-dioxo-6,11-dihydro-5H-indeno[1,2-c]isoquinolin-3-yl)-amino]acetic Acid]
[1]
  IC50: > 111 µM
[1]; listed as 41
  Tdp1 inhibitory activity (in words): inactivity; also recorded: inactive
[2]
  Top1 (compound-induced DNA cleavage, semiquantitative scale): 0

## CC(C)(C)OC(=O)NCCCn1c2c(c3ccc(NCC(=O)O)cc3c1=O)C(=O)c1ccccc1-2 [Compound 42 of (B), 2-((6-(3-((tert-Butoxycarbonyl)amino)propyl)-5,11-dioxo-6,11-dihydro-5H-indeno[1,2-c]isoquinolin-3-yl)amino)acetic Acid]
[1]
  IC50: > 111 µM
  Tdp1 inhibitory activity (in words): inactivity
[2]
  Top1 (compound-induced DNA cleavage, semiquantitative scale): 0

## COc1ccc2c(c1)-c1c(c3ccc([N+](=O)[O-])cc3c(=O)n1CCCBr)C2=O [Compound 49 of (B), 6-(3-Bromopropyl)-5,6-dihydro-8-methoxy-3-nitro-5,11-dioxo-11H-indeno[1,2-c]isoquinoline]
[1]
  IC50: > 111 µM
  Tdp1 inhibitory activity (in words): very weak or inactive
[2]
  Top1 (compound-induced DNA cleavage, semiquantitative scale): +++

## COc1ccc2c(c1)-c1c(c3ccc([N+](=O)[O-])cc3c(=O)n1CCCN=[N+]=[N-])C2=O [Compound 50 of (B), 6-(3-Azidopropyl)-5,6-dihydro-8-methoxy-3-nitro-5,11-dioxo-11H-indeno[1,2-c]isoquinoline]
[1]
  IC50: > 111 µM
  Tdp1 inhibitory activity (in words): very weak or inactive
[2]
  Top1 (compound-induced DNA cleavage, semiquantitative scale): +

## COc1ccc2c(c1)-c1c(c3ccc([N+](=O)[O-])cc3c(=O)n1CCCn1ccnc1)C2=O [Compound 52 of (B), 6-(3-(1H-Imidazol-1-yl)propyl)-8-methoxy-3-nitro-5H-indeno[1,2-c]isoquinoline-5,11(6H)-dione]
[1]
  Tdp1 (IC50, semiquantitative scale): (+)
  Tdp1 inhibitory activity (in words): very weak or inactive
[2]; 100 μM
  suppression of DNA cleavage at high drug concentration: slight suppression
[2]
  Top1 (compound-induced DNA cleavage, semiquantitative scale): +++
[3]
  GI50: < 0.01 µM
[4]
  GI50: < 0.01 µM
[5]
  GI50: < 0.01 µM
[6]
  GI50: < 0.01 µM
[7]
  GI50: < 0.01 µM
[8]
  GI50: 0.03 µM
[9]
  GI50: 0.03 µM
[10]
  GI50: 0.02 µM
[10]; listed as 52
  MGM: 0.02 ± 0.0006 µM

## COc1ccc2c(c1)-c1c(c3ccc([N+](=O)[O-])cc3c(=O)n1CCCN1CCOCC1)C2=O [Compound 53 of (B), 8-Methoxy-6-(3-morpholinopropyl)-3-nitro-5H-indeno[1,2-c]isoquinoline-5,11(6H)-dione]
[1]
  IC50: > 111 µM
  Tdp1 inhibitory activity (in words): very weak or inactive
[2]
  Top1 (compound-induced DNA cleavage, semiquantitative scale): ++

## COc1ccc2c(c1)C(=O)c1c-2n(CCCN)c(=O)c2cc([N+](=O)[O-])ccc12 [Compound 54 of (B)]
[3]
  GI50: < 0.01 µM
[4]
  GI50: < 0.01 µM
[5]
  GI50: < 0.01 µM
[6]
  GI50: < 0.01 µM
[10]
  GI50: 0.02 µM
[10]; listed as 54
  MGM: 0.02 ± 0.0008 µM

## O=C1c2ccccc2-c2c1c1ccc([N+](=O)[O-])cc1c(=O)n2CCCO [Compound 63 of (B)]
[4]
  GI50: 0.19 µM
[5]
  GI50: 0.31 µM
[6]
  GI50: 0.47 µM
[7]
  GI50: 0.43 µM
[8]
  GI50: 1.97 µM
[9]
  GI50: 0.87 µM
[10]
  GI50: 0.89 ± 0.22 µM

## Cl.NCCCCn1c2c(c3ccccc3c1=O)C(=O)c1ccccc1-2 [Compound 71 of (A)]
[2]; series (A), relative to 1 μM camptothecin
  Top1 inhibition (semiquantitative scale): +++ (between 75% and 95% activity)

## Cl.NCCCCCCCCCCCn1c2c(c3ccccc3c1=O)C(=O)c1ccccc1-2 [Compound 78 of (A)]
[1]; [11]
  IC50: 13 µM
[2]; relative to 1 μM camptothecin
  Top1 (compound-induced DNA cleavage due to Top1 inhibition): + (between 20 and 50%, activity)

## Cl.NCCCCCCCCCCCCn1c2c(c3ccccc3c1=O)C(=O)c1ccccc1-2 [Compound 79 of (A)]
[1]; [11]
  IC50: 15 µM
[2]; relative to 1 μM camptothecin
  Top1 (compound-induced DNA cleavage due to Top1 inhibition): 0/+
